solubility (mole fraction) (in ethanol, 288.15 K)	solubility (mole fraction) (in ethanol, 293.15 K)	solubility (mole fraction) (in ethanol, 298.15 K)	solubility (mole fraction) (in ethanol, 303.15 K)	solubility (mole fraction) (in ethanol, 308.15 K)	solubility (mole fraction) (in water, 288.15 K)	solubility (mole fraction) (in water, 293.15 K)	solubility (mole fraction) (in water, 298.15 K)	solubility (mole fraction) (in water, 303.15 K)	solubility (mole fraction) (in water, 308.15 K)	Structure (SMILES)
0.000142	0.000178	0.000209	0.000246	0.000284	0.00116	0.00119	0.00122	0.00125	0.00128	N[C@@H](Cc1c[nH]c2ccccc12)C(=O)O
1.6e-05	2e-05	2.8e-05	3.1e-05	3.9e-05	0.00379	0.00418	0.0046	0.00515	0.0057	N[C@@H](Cc1cnc[nH]1)C(=O)O
